Molecular target: HCV RNA-dependent RNA polymerase NS5B (Δ21) (Hepatitis C virus genotype 1b, UniProt P26663)
Test: Assay for HCV RNA-dependent RNA polymerase activity (SPA, [3H]-GTP incorporation)
Type: biochemical
Procedure: Assay for HCV RNA-dependent RNA Polymerase Activity
Inhibitory activity of the present compounds against HCV RNA-dependent RNA polymerase was assayed according to the methods disclosed in U.S. Patent Application U.S.2004/038993, content of which is incorporated herein by reference; and those described in Ferrari, E.; Wright-Minogue, J.; Fang, J. W. S.; Baroudy, B. M.; Lau, J. Y. N.; Hong, Z. J. Virol. 1999, 73, 1649.
Briefly, 50 μl reactions containing 20 mM HEPES (pH 7.3), 7.5 mM DTT, 20 units/ml RNasIN, 0.5 ug/ml biotinylated oligoG12, 5 μg/ml polyC, 5 μM GTP, 20 μCi/ml [^3H]-GTP, 10 mM MgCl2, 60 mM NaCl, 100 μg/ml BSA, and 50 nM NS5B (Δ21) were incubated at room temperature for three hours in 96-well plates with or without test compounds. Assay was terminated by the addition of 50 μl 10 mg/ml streptavidin-coated SPA beads supplemented with 100 mM EDTA, and the incorporation of labeled GTP determined by a TopCount Scintillation Counter. IC50 values were calculated from single experiments using 11 serial 2-fold dilutions (0.05–50 μM), and data were considered reliable only when the IC50 value of a positive internal control was within standard deviation range.

HCV RNA-dependent RNA polymerase NS5B (Δ21), sequence (P26663 2420-2989, stated change not applied): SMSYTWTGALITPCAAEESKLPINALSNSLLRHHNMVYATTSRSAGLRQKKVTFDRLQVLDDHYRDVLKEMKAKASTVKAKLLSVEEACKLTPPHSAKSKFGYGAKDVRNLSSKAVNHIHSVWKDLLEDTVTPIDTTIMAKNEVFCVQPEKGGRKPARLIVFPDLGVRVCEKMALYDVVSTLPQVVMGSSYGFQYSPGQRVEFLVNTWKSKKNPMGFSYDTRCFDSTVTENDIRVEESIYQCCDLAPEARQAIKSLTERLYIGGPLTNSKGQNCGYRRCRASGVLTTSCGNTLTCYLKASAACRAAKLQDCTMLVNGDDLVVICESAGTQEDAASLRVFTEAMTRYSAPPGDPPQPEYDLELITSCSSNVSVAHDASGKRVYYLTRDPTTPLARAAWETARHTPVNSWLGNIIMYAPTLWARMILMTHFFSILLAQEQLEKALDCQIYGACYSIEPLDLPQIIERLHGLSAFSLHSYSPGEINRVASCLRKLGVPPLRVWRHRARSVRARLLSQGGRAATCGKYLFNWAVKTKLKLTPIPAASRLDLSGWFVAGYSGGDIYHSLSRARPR

| Structure (SMILES) | IC50 [µM] |
| --- | --- |
| Cc1cccc(COc2cc(C(=O)O)nn2CC(=O)N[C@H]2CCCC[C@@H]2OCc2ccccc2)c1F [Compound 16] | 8.4 |
| O=C(Cn1nc(C(=O)O)cc1OCc1ccccc1)N[C@H]1CCCC[C@@H]1OCc1ccccc1 [Compound 1] | 43 |
| O=C(Cn1nc(C(=O)O)cc1OCc1ccc(C(F)(F)F)c(F)c1)N[C@H]1CCCC[C@@H]1OCc1ccccc1 [Compound 32] | 0.28 |
| O=C(Cn1nc(C(=O)O)cc1OCc1ccccc1-c1ccc(C(=O)O)cc1)N[C@H]1CCCC[C@@H]1OCc1ccccc1 [Compound 56] | > 12.5 |
| O=C(Cn1nc(C(=O)O)cc1OCc1ccc(Cl)cc1)N[C@H]1CCCC[C@@H]1OCc1ccccc1 [Compound 15] | 2.4 |
| O=C(Cn1nc(-c2nnn[nH]2)cc1OCc1ccccc1-c1ccc(C(F)(F)F)cc1)N[C@H]1CCCC[C@@H]1OCc1ccccc1 [Compound 66, N-(2-benzyloxy-cyclohexyl)-2-[3-(1H-tetrazol-5-yl)-5-(4′-trifluoromethyl-biphenyl-2-ylmethoxy)-pyrazol-1-yl]-acetamide] | 0.057 |
| O=C(Cn1nc(C(=O)O)cc1OCc1cc(F)ccc1C(F)(F)F)N[C@H]1CCCC[C@@H]1OCc1ccccc1 [Compound 40] | 3.1 |
| O=C(Cn1nc(C(=O)O)cc1OCc1cc(F)cc(F)c1)N[C@H]1CCCC[C@@H]1OCc1ccccc1 [Compound 23] | 12 |
| O=C(Cn1nc(C(=O)O)cc1OCc1ccc(F)cc1F)N[C@H]1CCCC[C@@H]1OCc1ccccc1 [Compound 29] | > 12.5 |
| Nc1nc2ccc(CNC(=O)Cn3nc(C(=O)O)cc3OCc3ccccc3-c3ccc(C(F)(F)F)cc3)cc2s1 [Compound 62] | > 12.5 |
| Cc1ccc(COc2cc(C(=O)O)nn2CC(=O)N[C@H]2CCCC[C@@H]2OCc2ccccc2)cc1F [Compound 22] | 3 |
| O=C(Cn1nc(C(=O)O)cc1OCc1ccc(F)cc1Cl)N[C@H]1CCCC[C@@H]1OCc1ccccc1 [Compound 17] | 9.5 |
| O=C(Cn1nc(C(=O)O)cc1OCc1ccccc1-c1cccc(Cl)c1)N[C@H]1CCCC[C@@H]1OCc1ccccc1 [Compound 53] | 0.78 |
| O=C(Cn1nc(C(=O)O)cc1OCc1ccccc1-c1ccsc1)N[C@H]1CCCC[C@@H]1OCc1ccccc1 [Compound 58, 1-[(2-benzyloxy-cyclohexylcarbamoyl)-methyl]-5-(2-thiophen-3-yl-benzyloxy)-1H-pyrazole-3-carboxylic acid] | 0.75 |
| O=C(Cn1nc(C(=O)O)cc1OCc1cccc(F)c1)N[C@H]1CCCC[C@@H]1OCc1ccccc1 [Compound 28] | > 12.5 |
| O=C(Cn1nc(C(=O)O)cc1OCc1ccccc1CS(=O)(=O)c1ccccc1)N[C@H]1CCCC[C@@H]1OCc1ccccc1 [Compound 4] | 32 |
| O=C(Cn1nc(C(=O)O)cc1OCc1ccc(C(F)(F)F)cc1F)N[C@H]1CCCC[C@@H]1OCc1ccccc1 [Compound 37] | 6.2 |
| O=C(Cn1nc(C(=O)O)cc1OCc1ccccc1CS(=O)(=O)c1ccccc1)Nc1ccccc1OCc1ccccc1 [Compound 8] | 0.8 |
| O=C(Cn1nc(C(=O)O)cc1OCc1ccccc1Cl)N[C@H]1CCCC[C@@H]1OCc1ccccc1 [Compound 13] | > 12.5 |
| O=C(Cn1nc(C(=O)O)cc1OCc1ccc(F)c(C(F)(F)F)c1)N[C@H]1CCCC[C@@H]1OCc1ccccc1 [Compound 31] | 1.4 |

| Structure (SMILES) | IC50 [µM] |
| --- | --- |
| O=C(Cn1nc(C(=O)O)cc1OCc1cccc(C(=O)O)c1)N[C@H]1CCCC[C@@H]1OCc1ccccc1 [Compound 48] | > 50 |
| O=C(Cn1nc(C(=O)O)cc1OCc1ccccc1C(F)(F)F)N[C@H]1CCCC[C@@H]1OCc1ccccc1 [Compound 20] | 2.9 |
| O=C(Cn1nc(C(=O)O)cc1OCc1cc(Cl)ccc1Cl)N[C@H]1CCCC[C@@H]1OCc1ccccc1 [Compound 12] | 3.9 |
| COc1ccc(-c2ccccc2COc2cc(C(=O)O)nn2CC(=O)N[C@H]2CCCC[C@@H]2OCc2ccccc2)cc1 [Compound 50, 1-[(2-benzyloxy-cyclohexylcarbamoyl)-methyl]-5-(4′-methoxy-biphenyl-2-ylmethoxy)-1H-pyrazole-3-carboxylic acid] | 0.38 |
| COc1cccc(-c2ccccc2COc2cc(C(=O)O)nn2CC(=O)N[C@H]2CCCC[C@@H]2OCc2ccccc2)c1 [Compound 49] | 3.6 |
| O=C(Cn1nc(C(=O)O)cc1OCc1cccc(F)c1C(F)(F)F)N[C@H]1CCCC[C@@H]1OCc1ccccc1 [Compound 44] | 4.5 |
| O=C(Cn1nc(C(=O)O)cc1OCc1ccc(F)c(Cl)c1)N[C@H]1CCCC[C@@H]1OCc1ccccc1 [Compound 42] | 13 |
| O=C(Cn1nc(C(=O)O)cc1OCc1cc(F)cc(C(F)(F)F)c1)N[C@H]1CCCC[C@@H]1OCc1ccccc1 [Compound 11, 1-[((1S, 2S)-2-Benzyloxy-cyclohexylcarbamoyl)-methyl]-5-(3-fluoro-5-trifluoromethyl-benzyloxy)-1H-pyrazole-3-carboxylic acid] | 1.8 |
| O=C(Cn1nc(C(=O)O)cc1OCc1cc(F)ccc1C(F)(F)F)N[C@H]1CCCC[C@@H]1OCc1ccccc1 [Compound 33] | 2.9 |
| O=C(Cn1nc(C(=O)O)cc1OCc1ccccc1-c1ccccc1Cl)N[C@H]1CCCC[C@@H]1OCc1ccccc1 [Compound 54] | 2.6 |
| O=C(Cn1nc(C(=O)O)cc1OCc1ccccc1-c1cccc(C(=O)O)c1)N[C@H]1CCCC[C@@H]1OCc1ccccc1 [Compound 55] | > 12.5 |
| O=C(Cn1nc(C(=O)O)cc1OCc1cc(F)ccc1F)N[C@H]1CCCC[C@@H]1OCc1ccccc1 [Compound 46] | > 12.5 |
| O=C(Cn1nc(C(=O)O)cc1OCc1cccc(Oc2ccccc2F)c1)N[C@H]1CCCC[C@@H]1OCc1ccccc1 [Compound 39] | 2.2 |
| O=C(Cn1nc(C(=O)O)cc1OCc1ccccc1-c1ccccc1)Nc1ccccc1OCc1ccccc1 [Compound 7] | 11 |
| O=C(Cn1nc(C(=O)O)cc1OCc1cccnc1)N[C@H]1CCCC[C@@H]1OCc1ccccc1 [Compound 65, 1-[(2-benzyloxy-cyclohexylcarbamoyl)-methyl]-5-(pyridin-3-ylmethoxy)-1H-pyrazole-3-carboxylic acid] | > 12.5 |
| O=C(Cn1nc(C(=O)O)cc1OCc1ccc(F)cc1)N[C@H]1CCCC[C@@H]1OCc1ccccc1 [Compound 21] | 13 |
| O=C(Cn1nc(C(=O)O)cc1OCc1ccc(C(F)(F)F)cc1)N[C@H]1CCCC[C@@H]1OCc1ccccc1 [Compound 19] | 0.62 |
| Cc1cc(COc2cc(C(=O)O)nn2CC(=O)N[C@H]2CCCC[C@@H]2OCc2ccccc2)ccc1F [Compound 43] | 3.1 |
| O=C(Cn1nc(C(=O)O)cc1OCc1cccc(C(F)(F)F)c1)N[C@H]1CCCC[C@@H]1OCc1ccccc1 [Compound 18] | 2.1 |
| O=C(Cn1nc(C(=O)O)cc1OCc1cccc(F)c1F)N[C@H]1CCCC[C@@H]1OCc1ccccc1 [Compound 24] | > 12.5 |

| Structure (SMILES) | IC50 [µM] |
| --- | --- |
| O=C(Cn1nc(C(=O)O)cc1OCc1ccccc1-c1cccs1)N[C@H]1CCCC[C@@H]1OCc1ccccc1 [Compound 57] | 2.1 |
| O=C(Cn1nc(C(=O)O)cc1OCc1cccc(Cl)c1)N[C@H]1CCCC[C@@H]1OCc1ccccc1 [Compound 27] | 8.6 |
| O=C(Cn1nc(C(=O)O)cc1OCc1ccsc1)N[C@H]1CCCC[C@@H]1OCc1ccccc1 [Compound 64] | > 12.5 |
| O=C(Cn1nc(C(=O)O)cc1OCc1ccccc1I)N[C@H]1CCCC[C@@H]1OCc1ccccc1 [Compound 61] | 6.5 |
| O=C(Cn1nc(C(=O)O)cc1OCc1ccc2ccccc2c1)N[C@H]1CCCC[C@@H]1OCc1ccccc1 [Compound 45] | 6.8 |
| O=C(Cn1nc(C(=O)O)cc1OCc1ccc(F)c(F)c1)N[C@H]1CCCC[C@@H]1OCc1ccccc1 [Compound 25] | 4.3 |
| O=C(Cn1nc(C(=O)O)cc1OCc1cccc(C(F)(F)F)c1F)N[C@H]1CCCC[C@@H]1OCc1ccccc1 [Compound 30] | 2 |
| O=C(Cn1nc(C(=O)O)cc1OCc1ccc(Cl)c(Cl)c1)N[C@H]1CCCC[C@@H]1OCc1ccccc1 [Compound 36] | 0.86 |
| CCOc1ccccc1COc1cc(C(=O)O)nn1CC(=O)N[C@H]1CCCC[C@@H]1OCc1ccccc1 [Compound 2] | 1 |
| CC(C)(C)COc1cc(C(=O)O)nn1CC(=O)N[C@H]1CCCC[C@@H]1OCc1ccccc1 [Compound 59] | > 12.5 |
| O=C(Cn1nc(C(=O)O)cc1OCc1cc(C(F)(F)F)ccc1F)N[C@H]1CCCC[C@@H]1OCc1ccccc1 [Compound 34] | 6.1 |
| O=C(Cn1nc(C(=O)O)cc1OCc1ccccc1)Nc1ccccc1OCc1ccccc1 [Compound 5] | 11 |
| O=C(Cn1nc(C(=O)O)cc1OCc1cccc(Cl)c1F)N[C@H]1CCCC[C@@H]1OCc1ccccc1 [Compound 35] | 9.2 |
| O=C(Cn1nc(C(=O)O)cc1OCc1cc(Cl)ccc1F)N[C@H]1CCCC[C@@H]1OCc1ccccc1 [Compound 41] | 7.8 |
| O=C(Cn1nc(C(=O)O)cc1OCc1ccc(F)cc1C(F)(F)F)N[C@H]1CCCC[C@@H]1OCc1ccccc1 [Compound 38] | 2.6 |
| O=C(Cn1nc(C(=O)O)cc1OCc1ccccc1-c1ccc(Cl)cc1)N[C@H]1CCCC[C@@H]1OCc1ccccc1 [Compound 10] | 0.064 |
| CS(=O)(=O)c1cccc(-c2ccccc2COc2cc(C(=O)O)nn2CC(=O)N[C@H]2CCCC[C@@H]2OCc2ccccc2)c1 [Compound 51] | 22 |
| O=C(Cn1nc(C(=O)O)cc1OCc1c(F)cccc1F)N[C@H]1CCCC[C@@H]1OCc1ccccc1 [Compound 26] | > 50 |

— patent publication US7115749B2, “Substituted 5-oxo pyrazoles and [1,2,4]triazoles as antiviral agents” (priority 2004, dated 2006)
